Results on 2 compounds are retold here after article PMC8282797, “Strictly regulated agonist-dependent activation of AMPA-R is the key characteristic of TAK-653 for robust synaptic responses and cognitive improvement” (Scientific Reports, 2021).

SMILES strings stand for the structures. Like-named read-outs stand apart in the source and are kept apart here.

As usually defined, the EC50 is the midpoint of the concentration-response curve.

The test system of the assay is AMPA-R. The experiment in a line: Whole-cell patch clamp recording using rat primary hippocampal neurons. Format: cell-based. As to conditions: for Single effect on AMPA-R currents: summary grade. More on the design: key to Single effect on AMPA-R currents: -: No effect or slight effect; +: Potent; ++: Very potent. How it is done: Whole-cell patch clamp recording using primary neurons between 11 and 20 days in vitro was performed as previously described. Patch electrodes with tip resistances ranging from 3 to 5 MΩ were filled with an intracellular solution containing: 135 mM CsCl, 1 mM MgCl2, 10 mM HEPES, 10 mM EGTA, 4 mM MgATP, and 0.3 mM Na2GTP, adjusted to pH7.3 with CsOH (osmolality 275–295 mosm/L). The extracellular solution contained: 140 mM NaCl, 4 mM KCl, 2 mM CaCl2, 1 mM MgCl2, 10 mM HEPES, 5 mM NaHCO3, 10 mM D( +)-glucose, and 0.001 mM TTX, adjusted to pH7.4 with NaOH (osmolality 300–315 mosm/L). All experiments were carried out at room temperature. Neurons were voltage-clamped at − 80 mV. Steady-state inward currents were evoked by the application of AMPA and AMPA potentiator via Y-tube perfusion system. Signals were recorded using a Multiclamp 700B amplifier (Molecular Devices, LLC, Orleans Drive Sunnyvale, CA), digitized using a Digidata 1440A interface board, filtered between 2 kHz, sampled at 10 kHz, and analyzed with pClamp10 software. Details are described in the Supplementary Information.
Whole-cell patch clamp technique was used for recording current from cultured rat hippocampal neurons between 11-20 days in vitro. Patch electrodes with tip resistances ranging from 3 to 5 MΩ were filled with an intracellular solution containing: 135 mM CsCl, 1 mM MgCl2, 10 mM HEPES, 10 mM EGTA, 4 mM Mg-ATP, 0.3 mM Na2-GTP, adjusted to pH7.3 with CsOH (osmolality 275-295 mosm/L). The extracellular solution contained: 140 mM NaCl, 4 mM KCl, 2 mM CaCl2, 1 mM MgCl2, 10 mM HEPES, 5 mM NaHCO3, 10 mM D(+)-glucose, and 0.001 mM TTX, adjusted to pH7.4 with NaOH (osmolality 300-315 mosm/L). All experiments were carried out at room temperature and performed using an Axopatch-1D amplifier with pCLAMP 9 software (Molecular Devices, LLC, Orleans Drive Sunnyvale, CA), low-pass filtered at 2 kHz, and stored on the computer hard-disk for off-line analysis. Neurons were voltage-clamped at –80mV. Steady-state inward currents were evoked by the application of AMPA and AMPA potentiator via Y-tube perfusion system. AMPA-R potentiator was applied 20 s prior to 10-s AMPA stimulus. The current at all drug concentrations tested was normalized by the steady-state current induced by 1 μM AMPA. In the absence of AMPA, the maximum current during 60-s application of AMPA-R potentiator was normalized by the steady-state current induced by 100 μM AMPA.
For orientation: Patch clamp records ionic current or voltage across a cell membrane.

With `Cc1onc(O)c1CC(N)C(=O)O` (stereo not drawn) [AMPA, alpha-amino-3-hydroxy-5-methyl-4-isoxazole-propionic acid], the “Single effect on AMPA-R currents” value is reported as “++”. Besides, the EC50 (single application, read-out: EC50, increase of AMPA-R-mediated currents) is 45 µM.
With `CC1=CN2CCS(=O)(=O)N=C2C(c2ccc(OC3CCCCC3)cc2)=N1` [TAK-653, 9-[4-(Cyclohexyloxy)phenyl]-7-methyl-3,4-dihydropyrazino[2,1-c][1,2,4]thiadiazine 2,2-dioxide], the “Potency relative to LY451646 in potentiation of AMPA-elicited currents (times less potent)” value is recorded as 2.3 times and the “Single effect on AMPA-R currents” value is recorded as “─”. The “AMPA-R currents, Agonistic effect @30 μM” value (absence of AMPA, % of AMPA (100 μM)-induced steady-state response) is reported as 1.7%. Besides, the EC50 (in the presence of 1 μM AMPA, read-out: AMPA-R currents, Potentiation EC50) turned out to be 4.4 µM.
